# Measurements taken from patent US4525347A, “Antiinflammatory analgesic gelled ointment” (Kowa Company Limited, priority 1983, dated 1985).
# Like-named read-outs stand apart in the source and are kept apart here.
# Key:
# [1] = Topical administration of indomethacin: activity and adverse reactions; assay type: in vivo; conditions: administered topically
# [2] = cited from earlier work
# [3] = Effect of adjuvant on skin absorption of indomethacin; assay type: in vivo; conditions: combination with an adjuvant
# [4] = in water and common media; cited from earlier work
# [5] = Skin absorption of indomethacin suspended in conventional ointment bases; assay type: in vivo, human beings; conditions: topical
# [6] = Effect of pH of the ointment on indomethacin (crystallization, decomposition); assay type: physicochemical
smiles,measurement,setting,value
"COc1ccc2c(c1)c(CC(=O)O)c(C)n2C(=O)c1ccc(Cl)cc1 [indomethacin, Indomethacin]",adverse reactions attributable to the administration of indomethacin,[1],completely eliminated
same,"antiinflammatory analgesic activity, topical vs internal use",[1],to the same extent as attained by its internal use
same,adverse effects,[2]; oral use,gastroenteric disorders
same,adverse effects,"[2]; suppository form, patient suffering from peptic ulcer","decreased appetite, nausea, vomiting, stomach ache, diarrhea and loose passage"
same,absorption of indomethacin by the skin,[3],substantially increased
same,solubility,[4],only slightly soluble
same,absorption by the skin,[5],remain unabsorbed by the skin of human beings
same,decomposition of indomethacin,[6]; pH level above 7.5,decomposed indomethacin
same,crystallization during the ointment preparation,[6]; pH level below 4.8,crystallization of indomethacin
